Results: ChEMBL document CHEMBL1131979, “Synthesis and SAR studies of 1-substituted-n-(4-alkoxycarbonylpiperidin-1-yl)alkanes as potent antiarrhythmic agents” (Bioorg Med Chem Lett, 1999)
Each block holds one molecule with its values, some of them ahead of it. Activity calls are given as the source filed them. No cut-off for these calls is given here.

How the values were obtained:
[1] = Lipophilicity was determined; type: physicochemical; details: octanol/water
[2] = species: Cavia porcellus; test: Antiarrhythmic effect expressed as percent reduction of the maximal rate of stimulation for antiarrhythmic activity in guinea pig auricle at 8 uM; type: functional, Heart
[3] = species: Cavia porcellus; test: Antiarrhythmic effect expressed as percent reduction of the maximal rate of stimulation for antiarrhythmic activity in guinea pig auricle at 8 uM; NS means not significant; type: functional; details: Heart
[4] = system: Cavia porcellus; test: Cardiac arrest(CA) in […] guinea pig tested for in vivo antiarrhythmic activity against ouabain induced cardiac arrhythmias at a dose of 20 mg/kg by po administration; type: functional, Heart
[5] = system: Cavia porcellus; test: Ventricular fibrillation (VF) in guinea pig tested for in vivo antiarrhythmic activity against ouabain induced cardiac arrhythmias at a dose of 10 mg/kg by iv administration; type: functional, Heart
[6] = system: Rattus norvegicus; test: Cardiac arrest(CA) in rats tested for in vivo Antiarrhythmic activity against aconitine induced arrhythmias at a dose of 25 mg/kg by po administration; type: functional, Heart
[7] = system: Rattus norvegicus; test: Change in heart rate(HR) in rats tested for in vivo antiarrhythmic activity against aconitine induced arrhythmia at a dose of 10 mg/kg by iv administration; value ranges from 16-34; type: functional
[8] = system: Rattus norvegicus; test: Appearance of ectopic beat (EA) in rats tested for in vivo Antiarrhythmic activity against aconitine induced arrhythmias at a dose of 25 mg/kg by po administration; type: functional, Heart
[9] = system: Cavia porcellus; test: Change in heart rate(HR) in guinea pig tested for in vivo antiarrhythmic activity against ouabain induced cardiac arrhythmias at a dose of 20 mg/kg by po administration; value ranges from 10-35%; type: functional
[10] = system: Rattus norvegicus; test: Change in heart rate(HR) in rats tested for in vivo antiarrhythmic activity against aconitine induced arrhythmias at a dose of 25 mg/kg by po administration; value ranges from 16-34; type: functional
[11] = system: Cavia porcellus; test: Change in heart rate(HR) in guinea pig tested for in vivo antiarrhythmic activity against ouabain induced cardiac arrhythmias at a dose of 10 mg/kg by iv administration; value ranges from 17-30%; type: functional
[12] = system: Rattus norvegicus; test: Ventricular tachycardia (VT) in rats tested for in vivo Antiarrhythmic activity against aconitine induced arrhythmias at a dose of 25 mg/kg by po administration; type: functional, Heart
[13] = system: Cavia porcellus; test: Appearance of ectopic beat (EA) in guinea pig tested for in vivo antiarrhythmic activity against ouabain induced cardiac arrhythmias at a dose of 10 mg/kg by iv administration; type: functional, Heart
[14] = system: Cavia porcellus; test: Ventricular fibrillation (VF) in guinea pig tested for in vivo antiarrhythmic activity against ouabain induced cardiac arrhythmias at a dose of 20 mg/kg by po administration; type: functional, Heart
[15] = system: Rattus norvegicus; test: Appearance of ectopic beat (EA) in rats tested for in vivo Antiarrhythmic activity against aconitine induced arrhythmias at a dose of 10 mg/kg by iv administration; type: functional, Heart
[16] = system: Cavia porcellus; test: Cardiac arrest(CA) in guinea pig tested for in vivo antiarrhythmic activity against ouabain induced cardiac arrhythmias at a dose of 10 mg/kg by iv administration; type: functional, Heart
[17] = system: Rattus norvegicus; test: Ventricular fibrillation (VF) in rats tested for in vivo Antiarrhythmic activity against aconitine induced arrhythmias at a dose of 10 mg/kg by iv administration; type: functional, Heart
[18] = system: Rattus norvegicus; test: Cardiac arrest(CA) in rats tested for in vivo Antiarrhythmic activity against aconitine induced arrhythmias at a dose of 10 mg/kg by iv administration; type: functional, Heart
[19] = system: Rattus norvegicus; test: Ventricular fibrillation (VF) in rats tested for in vivo Antiarrhythmic activity against aconitine induced arrhythmias at a dose of 25 mg/kg by po administration; type: functional, Heart
[20] = system: Rattus norvegicus; test: Ventricular tachycardia (VT) in rats tested for in vivo Antiarrhythmic activity against aconitine induced arrhythmias at a dose of 10 mg/kg by iv administration; type: functional, Heart
[21] = system: Cavia porcellus; test: Appearance of ectopic beat (EA) in guinea pig tested for in vivo antiarrhythmic activity against ouabain induced cardiac arrhythmias at a dose of 20 mg/kg by po administration; type: functional, Heart
[22] = system: Cavia porcellus; test: Change in heart rate(HR) in guinea pig tested for in vivo antiarrhythmic activity against ouabain induced cardiac arrhythmias at a dose of 10 mg/kg by iv administration; value ranges from 17-18%; type: functional
[23] = system: Cavia porcellus; test: Change in heart rate(HR) in guinea pig tested for in vivo antiarrhythmic activity against ouabain induced cardiac arrhythmias at a dose of 20 mg/kg by po administration; value ranges from 18-27%; type: functional
[24] = system: Rattus norvegicus; test: Change in heart rate(HR) in rats tested for in vivo antiarrhythmic activity against aconitine induced arrhythmias at a dose of 25 mg/kg by po administration; value ranges from 11-17%; type: functional
[25] = system: Rattus norvegicus; test: Change in heart rate(HR) in rats tested for in vivo antiarrhythmic activity against aconitine induced arrhythmias at a dose of 10 mg/kg by iv administration; value ranges from 18-30%; type: functional

SMILES: COC(=O)C1CCN(CCCN2CCN(c3ccccn3)CC2)CC1
inhibition [3]: inactive

SMILES: COC(=O)C1CCN(CCCN2CCN(c3ccc(F)cc3)CC2)CC1
inhibition [3]: inactive

SMILES: COC(=O)C1CCN(CCCC(=O)c2ccc(F)cc2)CC1
Amount of Ouabain used [4]: 187.05
Log P/(100-P) [1]: -0.493
Amount of Ouabain used [5]: 138.04
Amount of Acotine used [6]: 457.72
Change in heart rate [7]: 16%
Amount of Acotine used [8]: 159.29
Change in heart rate [9]: 10%
Change in heart rate [10]: 16%
Change in heart rate [11]: 17%
Amount of Acotine used [12]: 226.74
Amount of Ouabain used [13]: 101.35
Amount of Ouabain used [14]: 153.65
Amount of Acotine used [15]: 132.79
Amount of Ouabain used [16]: 175.76
Amount of Acotine used [17]: 373.36
Inhibition [2]: 24.33%
Amount of Acotine used [18]: 544.28
Amount of Acotine used [19]: 356.09
Amount of Acotine used [20]: 231.27
Amount of Ouabain used [21]: 124.56

SMILES: CC(C)OC(=O)C1CCN(CCCC(=O)c2ccc(F)cc2)CC1
Log P/(100-P) [1]: -0.865
Inhibition [2]: 12%

SMILES: COC(=O)C1CCN(CCC(=O)N2CCN(c3ccc(F)cc3)CC2)CC1
Log P/(100-P) [1]: -0.954
Inhibition [2]: 10%

SMILES: C=C[C@H]1CN2CC[C@H]1C[C@@H]2[C@@H](O)c1ccnc2ccc(OC)cc12.C=C[C@H]1CN2CC[C@H]1C[C@@H]2[C@@H](O)c1ccnc2ccc(OC)cc12.O.O.O=S(=O)(O)O [QUINIDINE SULFATE]
Amount of Ouabain used [4]: 225.31
Amount of Ouabain used [5]: 167.78
Amount of Acotine used [6]: 581.06
Amount of Acotine used [8]: 173.66
Amount of Acotine used [12]: 237.02
Amount of Ouabain used [13]: 128.33
Amount of Ouabain used [14]: 201.34
Change in heart rate [22]: 17%
Amount of Acotine used [15]: 156.24
Amount of Ouabain used [16]: 187.59
Change in heart rate [23]: 18%
Change in heart rate [24]: 11%
Amount of Acotine used [17]: 370
Inhibition [2]: 29.68%
Amount of Acotine used [18]: 523.64
Amount of Acotine used [19]: 416.36
Amount of Acotine used [20]: 252.72
Amount of Ouabain used [21]: 138.99
Change in heart rate [25]: 18%

More lines, main results first:

Log P/(100-P) [1]: -0.462
SMILES: CCOC(=O)C1CCN(CCCC(=O)c2ccc(F)cc2)CC1
Inhibition [2]: 25.66%

Log P/(100-P) [1]: -1.123
SMILES: COC(=O)C1CCN(CCCOc2cccc(NC(C)=O)c2)CC1
Inhibition [2]: 7%

Log P/(100-P) [1]: -1.195
SMILES: COC(=O)C1CCN(CCCN2CCN(c3ccccc3)CC2)CC1
Inhibition [2]: 6%

Log P/(100-P) [1]: -0.954
SMILES: CCCOC(=O)C1CCN(CCCC(=O)c2ccc(F)cc2)CC1
Inhibition [2]: 10%
